Test results published in PMC6225232, “Design, Synthesis and Biological Evaluation of Ligustrazine-Flavonoid Derivatives as Potential Anti-Tumor Agents” (Molecules : A Journal of Synthetic Chemistry and Natural …, 2018).

How the values were obtained:
Format in all cases: cell-based, human
HepG-2 = assay: MTT cytotoxicity assay, HepG-2
Protocol: (§1) Five kinds of tumor cell lines and one normal endothelial cell were routinely cultured respectively in RPMI 1640 medium supplemented with 10% (V/V) FBS and 1% (V/V) penicillin-streptomycin, incubated at 37 °C in a 5% CO2 containing incubator. The five tumor cell lines were plated onto 96-well sterile plates in 100 μL/well of medium at a density of 3.5 × 10^3 cells per well and incubated at 37 °C with 5% CO2 for 24 h. Then luteolin, baicalein, apigenin, chrysin, quercetin, fisetin, genistein, daidzein, naringenin, DDP and compounds 10–25 were added at various concentrations (5, 10, 20, 40, 50 μΜ). Each plate contained control group, blank group, drug group and positive group (DDP). After 72 h, 20 μL MTT in phosphate buffered saline (PBS, 5 mg/mL) was added to each well and the plates were incubated at 37 °C for 4 h, then removing the liquid and adding dimethyl sulfoxide (DMSO, 100 μL) to dissolve the MTT formazan. The optical density (OD) for each well was measured on a BIORAD 550 spectrophotometer plate reader (Bio-Gene Technology Ltd., Guangzhou, China) at a wavelength of 490 nm. All tests were carried out three times in parallel.

HT-29 = assay: MTT cytotoxicity assay, HT-29
Protocol: as §1

HeLa = assay: MTT cytotoxicity assay, HeLa; conditions: 72 h
Protocol: as §1

Bel-7402 = assay: MTT cytotoxicity assay, Bel-7402
Protocol: as §1

MCF-7 = assay: MTT cytotoxicity assay, MCF-7
Protocol: as §1

HUVEC-12 = assay: MTT cytotoxicity assay using HUVEC-12 cell
Protocol: Five kinds of tumor cell lines and one normal endothelial cell were routinely cultured respectively in RPMI 1640 medium supplemented with 10% (V/V) FBS and 1% (V/V) penicillin-streptomycin, incubated at 37 °C in a 5% CO2 containing incubator.
The HUVEC-12 cell were seeded in 96-well plates (6.0 × 10^3 cells/ well), and incubated at 37 °C in a 5% CO2 containing incubator. After 24 h, the medium was replaced with fresh medium containing the compounds to be tested. Compounds 14, 19 and DDP were added in final concentrations ranging from 2.5 to 40 μM. Each plate contained control group, blank group and drug group. After 24 h, 20 μL MTT was added to each well and the plates were incubated at 37 °C for 4 h, then removing the liquid and adding dimethyl sulfoxide (DMSO) (100 μL) to dissolve the MTT formazan. The optical density (OD) for each well was measured on a BIORAD 550 spectrophotometer plate reader at a wavelength of 490 nm. All tests were carried out three times in parallel. The proliferation inhibition rates of tumor cells were calculated by {1 − [OD490 (Drug group) − OD490 (Blank group)]/[OD490 (Control group) − OD490 (Blank group)]} × 100%.

O=c1cc(-c2ccc(O)c(O)c2)oc2cc(O)cc(O)c12 [Luteolin]
IC50 (HepG-2; Homo sapiens, HepG2, 72 h): 11.8 ± 0.44 µM | IC50 (HT-29; Homo sapiens, HT-29, 72 h): 19.2 ± 1.17 µM | IC50 (HeLa; Homo sapiens): 21.3 ± 1.12 µM | IC50 (Bel-7402; Homo sapiens, Bel-7402, 72 h): 14.5 ± 0.68 µM | IC50 (MCF-7; Homo sapiens, MCF7, 72 h): 17 ± 0.31 µM

Cc1nc(C)c(COc2ccc(/C=C/C(=O)c3c(OCc4nc(C)c(C)nc4C)cc(OCc4nc(C)c(C)nc4C)cc3OCc3nc(C)c(C)nc3C)cc2)nc1C [Compound 16, (E)-3-(4-((3,5,6-Trimethylpyrazin-2-yl)methoxy)phenyl)-1-(2,4,6-tris((3,5,6-trimethylpyrazin-2-yl)-methoxy)phenyl)prop-2-en-1-one]
IC50 (HepG-2; Homo sapiens, HepG2, 72 h): 20.6 ± 1.39 µM | IC50 (HT-29; Homo sapiens, HT-29, 72 h): 34.4 ± 2.32 µM | IC50 (HeLa; Homo sapiens): 30.5 ± 2.62 µM | IC50 (Bel-7402; Homo sapiens, Bel-7402, 72 h): > 40 µM | IC50 (MCF-7; Homo sapiens, MCF7, 72 h): 16.5 ± 0.45 µM

O=c1cc(-c2ccccc2)oc2cc(O)cc(O)c12 [Chrysin]
IC50 (HepG-2; Homo sapiens, HepG2, 72 h): 15.6 ± 0.3 µM | IC50 (HT-29; Homo sapiens, HT-29, 72 h): 30.3 ± 1.96 µM | IC50 (HeLa; Homo sapiens): > 40 µM | IC50 (Bel-7402; Homo sapiens, Bel-7402, 72 h): 35 ± 1.46 µM | IC50 (MCF-7; Homo sapiens, MCF7, 72 h): 32.1 ± 2.78 µM

Cc1nc(C)c(COc2ccc(-c3coc4cc(OCc5nc(C)c(C)nc5C)ccc4c3=O)cc2)nc1C [Compound 20, 7-((3,5,6-Trimethylpyrazin-2-yl)methoxy)-3-(4-((3,5,6-trimethylpyrazin-2-yl)methoxy)phenyl)-4H-chromen-4-one]
IC50 (HepG-2; Homo sapiens, HepG2, 72 h): > 40 µM | IC50 (HT-29; Homo sapiens, HT-29, 72 h): 10.9 ± 2.3 µM | IC50 (HeLa; Homo sapiens): 16.5 ± 1.79 µM | IC50 (Bel-7402; Homo sapiens, Bel-7402, 72 h): 25.2 ± 1.72 µM | IC50 (MCF-7; Homo sapiens, MCF7, 72 h): > 40 µM

Cc1nc(C)c(COc2cc(O)c3c(=O)cc(-c4ccccc4)oc3c2)nc1C [Compound 10, 5-Hydroxy-2-phenyl-7-((3,5,6-trimethylpyrazin-2-yl)methoxy)-4H-chromen-4-one]
IC50 (HepG-2; Homo sapiens, HepG2, 72 h): > 40 µM | IC50 (HT-29; Homo sapiens, HT-29, 72 h): > 40 µM | IC50 (HeLa; Homo sapiens): 26.7 ± 0.34 µM | IC50 (Bel-7402; Homo sapiens, Bel-7402, 72 h): > 40 µM | IC50 (MCF-7; Homo sapiens, MCF7, 72 h): > 40 µM

N.N.[Cl][Pt][Cl] [DDP, reference compound]
IC50 (HepG-2; 72 h): 4.14 ± 0.16 µM | IC50 (HT-29; 72 h): 5.83 ± 0.59 µM | IC50 (HeLa): 4.76 ± 0.41 µM | IC50 (Bel-7402; 72 h): 6.73 ± 0.37 µM | Proliferation Rate (%) 2.5 μM (HUVEC-12; HUVEC-12, 24 h, 2.5 μM, negative = inhibition): −23.93 ± 0.75% | Proliferation Rate (%) 5 μM (HUVEC-12; HUVEC-12, 24 h, 5 μM, negative = inhibition): −31.38 ± 1.46% | Proliferation Rate (%) 10 μM (HUVEC-12; HUVEC-12, 24 h, 10 μM, negative = inhibition): −58.24 ± 0.82% | Proliferation Rate (%) 20 μM (HUVEC-12; HUVEC-12, 24 h, 20 μM, negative = inhibition): −66.58 ± 1.75% | Proliferation Rate (%) 40 μM (HUVEC-12; HUVEC-12, 24 h, 40 μM, negative = inhibition): −82.69 ± 2.19% | IC50 (HUVEC-12; MTT, 24 h): 9.11 ± 0.54 µM | IC50 (MCF-7; 72 h): 6.75 ± 0.57 µM

O=c1cc(-c2ccccc2)oc2cc(O)c(O)c(O)c12 [Baicalein]
IC50 (HepG-2; Homo sapiens, HepG2, 72 h): 20.4 ± 2.07 µM | IC50 (HT-29; Homo sapiens, HT-29, 72 h): 19.2 ± 2.72 µM | IC50 (HeLa; Homo sapiens): 22.8 ± 3.54 µM | IC50 (Bel-7402; Homo sapiens, Bel-7402, 72 h): 21.6 ± 3.68 µM | IC50 (MCF-7; Homo sapiens, MCF7, 72 h): 37.9 ± 1.52 µM

O=c1c(-c2ccc(O)cc2)coc2cc(O)cc(O)c12 [Genistein]
IC50 (HepG-2; Homo sapiens, HepG2, 72 h): 19.8 ± 1.31 µM | IC50 (HT-29; Homo sapiens, HT-29, 72 h): 31.13 ± 0.26 µM | IC50 (HeLa; Homo sapiens): 34.6 ± 2.52 µM | IC50 (Bel-7402; Homo sapiens, Bel-7402, 72 h): 34.7 ± 0.63 µM | IC50 (MCF-7; Homo sapiens, MCF7, 72 h): 35.6 ± 1.38 µM
